According to patent US20150329387A1, “SYSTEMS AND METHODS FOR GENERATING HALOAMINES AND APPLICATION THEREOF IN OIL AND GAS OPERATIONS” (BUCKMAN LABORATORIES INTERNATIONAL, INC., priority 2014, published 2015):

How the values were obtained:
Assay type in all cases: cell-based
[1] = system: anaerobes; assay: Kill study: ATP test of anaerobically captured oil field influent water (LuminUltra QUO-M kit); design: ATP readings: unit not given here
Description: In an oil and gas field in the western USA, MCA was tested in comparison with methylene bis(thiocyanate), (MTC) in a weekly batch treatment and is fed for 2-3 hours at 200 ppm (as product).
A solution of MCA Working Solution was prepared using Busan 1474 and Bulab 6004 (high alkalinity bleach). The reaction of these two components diluted in water at the proper equimolar ratios and proper pH produces a stable high concentration of biocide. A known concentration of MCA was added to a specific volume of influent water which had to be captured under anaerobic conditions and kept in an incubation chamber when not being used because the primary organisms of interest (anaerobes) are very susceptible to both oxygen and temperature changes. Therefore, as soon as the samples were collected, the head space of the bottles were purged with Nitrogen and then sealed with a rubber stopper (which will permit the insertion of a hypodermic needle) and then crimped into place with an aluminium seal.
Owing to the fact that there is significant oil in the water, the organisms are coated with a fine layer of organic material, thus necessitating the usage of an ATP test kit which washes away the layer of oil prior to ATP testing. The kit employed for this testing is manufactured by LuminUltra and is identified as the Quench Gone Organic-Modified (QUO-M) test kit.
Furthermore, in order to ensure that adequate MCA was present to penetrate this oil layer (and have an apples to apples comparison in performance), the MCA was dosed at the same level as the MTC at a concentration of 200 ppm.
The MCA was tested at intervals between this period (30, 60, 180, and 240 minutes).
Bottles were collected and the initial concentration of ATP for each bottle was measured and then dosed with 200 ppm of MCA and MTC respectively and one bottle was not dosed to serve as a growth control.

[2] = system: total biological organism concentration; assay: ATP test of biocides in produced water from oil field water/oil/gas separator (LuminUltra QBG kit)
Description: A one-liter sample of water was obtained from the mechanical water/oil/gas separator from a producing oil field in the western USA. The one liter sample was separated into four aliquots, one control and three test samples.
Adenosine triphosphate (ATP) is the energy source for all living organisms. Measurement of the ATP concentration in a water sample gives a good indication of the concentration of total biological organism concentration. A number of different companies including 3M and LuminUltra manufacture test kits. For this testing, the LuminUltra QBG test kit was employed.
Each of the non-control samples were dosed with one of three different biocides: MTC-10 (a 10% solution of methylenebis(thiocyanate) at 22 ppm active concentration; Diald 25 (a 25% solution of Glutaraldehyde) at 50 ppm active; and monochloramine (MCA) at a concentration of 7.5 ppm. After 30 and 60 minutes of exposure, ATP levels were measured and recorded.

[3] = Previous testing of kill time and cell penetration
Description: Previous testing had shown that the MCA was killing in 20 minutes what it took other biocides (i.e. MTC and Glutaraldehyde) to accomplish in four hours.

[4] = 0 min, initial reading of the bottle before dosing at 200 ppm
[5] = 180 min after dosing at 200 ppm
[6] = 240 min after dosing at 200 ppm

Row | Structure (SMILES) | ATP readings [1, 4] | Overall performance in kill study compared with MCA ([1]; 200 ppm, FIG. 4 / Table 1) | ATP readings [1, 5] | Percent reduction in ATP level (percent kill) ([1]; 240 min, 200 ppm) | ATP readings [1, 6] | Effectiveness relative to MTC-10 on an activity percentage basis ([2]; 30 minutes and 60 minutes of exposure, Figure-3) | Performance better than Diald-25 on an activity percentage basis ([2]; 60 minutes of exposure, Figure-3) | Performance on a product percentage basis compared with Diald-25 ([2]; MCA 7.5 ppm vs Diald 25 50 ppm active, ATP after 30 and 60 minutes, Figure-2) | Performance on a product percentage basis compared with MTC-10 ([2]; MCA 7.5 ppm vs MTC-10 22 ppm active, ATP after 30 and 60 minutes, Figure-2) | Performance relative to Diald-25 on an activity percentage basis ([2]; first 30 minutes, Figure-3) | Percent reduction in ATP level (percent kill) ([1]; 30 min, 200 ppm) | ATP readings ([1]; 30 min after dosing at 200 ppm) | Percent reduction in ATP level (percent kill) ([1]; 60 min, 200 ppm) | ATP readings ([1]; 60 min after dosing at 200 ppm) | Percent reduction in ATP level (percent kill) ([1]; 180 min, 200 ppm) | Cell penetration ([3]; compared with MTC) | Time to accomplish kill ([3]; previous testing)
1 | N#CSCSC#N [MTC, methylene bis(thiocyanate), reference compound] | 217.3 | performed slightly better | 16.9 | 0.97% | 6.12 |  |  |  |  |  |  |  |  |  |  |  | 
2 | NCl [MCA, monochloramine] | 321.4 |  | 17.4 | 96% | 11.9 | greater than 3 × | more than 20% | better than Diald-25 | as well as MTC-10 | ~2 × | 92% | 26.05 | 94% | 19.2 | 95% | better than for MTC | 20 min
